Consider two compounds from ChEMBL document CHEMBL1240454, “1,3-Dioxolane-based ligands incorporating a lactam or imide moiety: structure-affinity/activity relationship at alpha1-adrenoceptor subtypes and at 5-HT1A receptors” (Eur J Med Chem, 2010).

The target in test [1] is T1, Alpha-1B adrenergic receptor (Rattus norvegicus) (UniProt P15823).
T1 sequence (whole entry): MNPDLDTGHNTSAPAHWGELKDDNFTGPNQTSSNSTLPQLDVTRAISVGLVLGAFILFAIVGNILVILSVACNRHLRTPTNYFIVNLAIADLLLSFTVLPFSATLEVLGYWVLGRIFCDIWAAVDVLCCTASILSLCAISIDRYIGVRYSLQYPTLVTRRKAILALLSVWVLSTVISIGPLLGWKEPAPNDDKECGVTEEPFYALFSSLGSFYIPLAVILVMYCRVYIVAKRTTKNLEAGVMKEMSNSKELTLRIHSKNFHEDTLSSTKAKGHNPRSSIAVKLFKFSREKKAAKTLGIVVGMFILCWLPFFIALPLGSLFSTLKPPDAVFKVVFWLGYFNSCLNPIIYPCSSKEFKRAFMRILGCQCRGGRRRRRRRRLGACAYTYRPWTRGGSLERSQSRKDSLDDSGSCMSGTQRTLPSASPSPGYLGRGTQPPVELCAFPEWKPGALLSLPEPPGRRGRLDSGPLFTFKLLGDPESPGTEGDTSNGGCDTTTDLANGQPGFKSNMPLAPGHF
In words: Antagonist activity at adrenergic Alpha-1B receptor in Wistar rat spleen assessed as inhibition of […]-induced tissue contraction treated 30 mins before […] challenge. It is filed as functional, tissue-based.

For test [2], the target named is T2, 5-hydroxytryptamine receptor 1A (Homo sapiens) (UniProt P08908).
T2 sequence (whole entry): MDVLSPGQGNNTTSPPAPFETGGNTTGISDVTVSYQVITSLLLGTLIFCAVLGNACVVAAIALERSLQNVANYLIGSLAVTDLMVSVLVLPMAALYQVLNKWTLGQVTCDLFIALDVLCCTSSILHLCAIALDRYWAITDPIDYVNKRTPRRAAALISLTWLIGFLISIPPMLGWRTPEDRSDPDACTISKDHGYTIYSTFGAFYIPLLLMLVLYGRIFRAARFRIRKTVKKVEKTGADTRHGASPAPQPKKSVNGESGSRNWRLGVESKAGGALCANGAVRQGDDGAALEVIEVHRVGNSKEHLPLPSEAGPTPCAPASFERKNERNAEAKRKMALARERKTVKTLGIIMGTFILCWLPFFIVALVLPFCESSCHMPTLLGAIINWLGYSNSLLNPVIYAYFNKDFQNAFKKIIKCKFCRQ
Nature of the test: Agonist activity at human cloned 5HT1A receptor expressed in human HeLa cells assessed as stimulation of [35S]GTPgammaS binding after 20 mins by liquid scintillation counting. It is filed as functional, cell-based.

The target in test [3] is T2, 5-hydroxytryptamine receptor 1A (Homo sapiens). In words: Agonist activity at human cloned 5HT1A receptor expressed in human HeLa cells assessed as stimulation of [35S]GTPgammaS binding after 20 mins by liquid scintillation counting relative to maximal 5HT response. Type of test: functional, cell-based.

Molecules are shown by their SMILES.

On to `COc1ccccc1N1CCN(CCN2C(=O)CC3(CCCC3)CC2=O)CC1`, for which the negative-log Kb (pKb) – broadly, the negative decadic logarithm of the Kb, by convention in mol/L – in test [1] was 7.48. For the same compound, in test [2], the pD2 was found to be 7.83. The maximal effect (Emax) (commonly the maximal effect, on the per cent scale that the assay sets) in test [3] is 100%.
With `CCCN(CCC)C1CCc2cccc(O)c2C1` (stereo not given), the pD2 in test [2] amounted to 9.27. Further, the maximal effect (Emax) in test [3] amounted to 26%.
